A short description of one data set: Miscibility with water. It counts as physicochemical. To be noted: this work.
The nature of another data set: Miscibility with hexane. The data set is classed as physicochemical. To be noted: this work.

For `CN(C)C=O` [DMF, N,N‐dimethylformamide], in “Miscibility with water”, the Water misc. result was “yes^[a]”. Besides, in the data set “Miscibility with hexane”, the Hexane misc. entry was “no^[a]”.

The record behind these values is paper PMC7318222, “A Family of Water‐Immiscible, Dipolar Aprotic, Diamide Solvents from Succinic Acid” (Chemsuschem, 2020).
